# Experimental data as given in patent US11691980B2, “Liphagal analog and multi-targeted kinase inhibitor containing liphagal or analog thereof” (TOHOKU UNIVERSITY, priority 2017, dated 2023).
# Legend:
# Type in all cases: biochemical
# DYRK2 = target: T1, DYRK2 (Homo sapiens, UniProt Q92630); assay: mobility shift assay
# T1 construct: purchased Carna Biosciences
# DAPK1 = target: T2, DAPK1 (Homo sapiens, UniProt P53355); assay: mobility shift assay
# T2 construct: purchased Carna Biosciences
# TRKA = target: T3, TRKA (Homo sapiens, UniProt P04629); assay: mobility shift assay
# T3 construct: purchased Carna Biosciences
# PDK1 = target: T4, PDK1 (Homo sapiens, UniProt O15530); assay: mobility shift assay
# T4 construct: purchased Carna Biosciences
# MARK3 = target: T5, MARK3 (Homo sapiens, UniProt P27448); assay: mobility shift assay
# T5 construct: purchased Carna Biosciences
# LYNb = target: T6, LYNb (Homo sapiens, UniProt P07948); assay: mobility shift assay
# T6 construct: purchased Carna Biosciences
# NEK6 = target: T7, NEK6 (Homo sapiens, UniProt Q9HC98); assay: mobility shift assay
# T7 construct: purchased Carna Biosciences
# MOS_Cascade = target: T8, MOS_Cascade (Homo sapiens, UniProt P00540); assay: mobility shift assay
# T8 construct: purchased Carna Biosciences
# AurB = target: T9, AurB (Homo sapiens, UniProt Q96GD4); assay: mobility shift assay
# T9 construct: purchased Carna Biosciences
# FM8 = target: T10, FM8 (Homo sapiens, UniProt P07333); assay: mobility shift assay
# T10 construct: purchased Carna Biosciences
# MST 4 = target: T11, MST 4 (Homo sapiens, UniProt Q9P289); assay: mobility shift assay
# T11 construct: purchased Carna Biosciences
# ABL(T315I) = target: T12, ABL(T315I) (Homo sapiens, UniProt P00519, T315I); assay: mobility shift assay
# T12 construct: purchased Carna Biosciences
# IRAK1 = target: T13, IRAK1 (Homo sapiens, UniProt P51617); assay: IMAP Assay
# T13 construct: purchased Carna Biosciences
# MLK1_Cascade = target: T14, MLK1_Cascade (Homo sapiens, UniProt P80192); assay: mobility shift assay
# T14 construct: purchased Carna Biosciences
# NuaK1 = target: T15, NuaK1 (Homo sapiens, UniProt O60285); assay: mobility shift assay
# T15 construct: purchased Carna Biosciences
# FGFR1(V561M) = target: T16, FGFR1(V561M) (Homo sapiens, UniProt P11362, V561M); assay: mobility shift assay
# T16 construct: purchased Carna Biosciences
# SLK = target: T17, SLK (Homo sapiens, UniProt Q9H2G2); assay: mobility shift assay
# T17 construct: purchased Carna Biosciences
# MAP2K3_Cascade = target: T18, MAP2K3_Cascade (Homo sapiens, UniProt P46734); assay: mobility shift assay
# T18 construct: purchased Carna Biosciences
# MAPKAPK5 = target: T19, MAPKAPK5 (Homo sapiens, UniProt Q8IW41); assay: mobility shift assay
# T19 construct: purchased Carna Biosciences
# BTK = target: T20, BTK (Homo sapiens, UniProt Q06187); assay: mobility shift assay
# T20 construct: purchased Carna Biosciences
# PBK = target: T21, PBK (Homo sapiens, UniProt Q96KB5); assay: mobility shift assay
# T21 construct: purchased Carna Biosciences
# MNK = assay: mobility shift assay; conditions: 10 μM
# TRKB = target: T22, TRKB (Homo sapiens, UniProt Q16620); assay: mobility shift assay
# T22 construct: purchased Carna Biosciences
# ALK(F1174L) = target: T23, ALK(F1174L) (Homo sapiens, UniProt Q9UM73, F1174L); assay: mobility shift assay
# T23 construct: purchased Carna Biosciences
# EGFR(L861Q) = target: T24, EGFR(L861Q) (Homo sapiens, UniProt P00533, L861Q); assay: mobility shift assay
# T24 construct: purchased Carna Biosciences
# HPK1 = target: T25, HPK1 (Homo sapiens, UniProt Q86Z02); assay: mobility shift assay
# T25 construct: purchased Carna Biosciences
# SYK = target: T26, SYK (Homo sapiens, UniProt P43405); assay: mobility shift assay
# T26 construct: purchased Carna Biosciences
# SGK2 = target: T27, SGK2 (Homo sapiens, UniProt Q9HBY8); assay: mobility shift assay
# T27 construct: purchased Carna Biosciences
# MLK2_Cascade = target: T28, MLK2_Cascade (Homo sapiens, UniProt Q02779); assay: mobility shift assay
# T28 construct: purchased Carna Biosciences
# CaMK1α = target: T29, CaMK1α (Homo sapiens, UniProt Q14012); assay: mobility shift assay
# T29 construct: purchased Carna Biosciences
# CK1ε = target: T30, CK1ε (Homo sapiens, UniProt P49674); assay: mobility shift assay
# T30 construct: purchased Carna Biosciences
# CGK2 = target: T31, CGK2 (Homo sapiens, UniProt Q13237); assay: mobility shift assay
# T31 construct: purchased Carna Biosciences
# MNK1 = target: T32, MNK1 (Homo sapiens, UniProt Q9BUB5); assay: mobility shift assay
# T32 construct: purchased Carna Biosciences
# DYRK3 = target: T33, DYRK3 (Homo sapiens, UniProt O43781); assay: mobility shift assay
# T33 construct: purchased Carna Biosciences
# MUSK = target: T34, MUSK (Homo sapiens, UniProt O15146); assay: mobility shift assay
# T34 construct: purchased Carna Biosciences
# ABL = target: T35, ABL (Homo sapiens, UniProt P00519); assay: mobility shift assay
# T35 construct: purchased Carna Biosciences
# MAP3K3_Cascade = assay: mobility shift assay; conditions: 10 μM
# KIT(V560G) = target: T36, KIT(V560G) (Homo sapiens, UniProt P10721, V560G); assay: mobility shift assay
# T36 construct: purchased Carna Biosciences
# TSSK3 = target: T37, TSSK3 (Homo sapiens, UniProt Q96PN8); assay: mobility shift assay
# T37 construct: purchased Carna Biosciences
# GSK3β = target: T38, GSK3β (Homo sapiens, UniProt P49841); assay: mobility shift assay
# T38 construct: purchased Carna Biosciences
# MAP3K4_Cascade = assay: mobility shift assay; conditions: 10 μM
# KIT = target: T39, KIT (Homo sapiens, UniProt P10721); assay: mobility shift assay
# T39 construct: purchased Carna Biosciences
# CDC7/ASK = target: T40, CDC7/ASK (Homo sapiens, UniProt O00311); assay: mobility shift assay
# T40 construct: purchased Carna Biosciences
# T29 sequence (Q14012 whole entry): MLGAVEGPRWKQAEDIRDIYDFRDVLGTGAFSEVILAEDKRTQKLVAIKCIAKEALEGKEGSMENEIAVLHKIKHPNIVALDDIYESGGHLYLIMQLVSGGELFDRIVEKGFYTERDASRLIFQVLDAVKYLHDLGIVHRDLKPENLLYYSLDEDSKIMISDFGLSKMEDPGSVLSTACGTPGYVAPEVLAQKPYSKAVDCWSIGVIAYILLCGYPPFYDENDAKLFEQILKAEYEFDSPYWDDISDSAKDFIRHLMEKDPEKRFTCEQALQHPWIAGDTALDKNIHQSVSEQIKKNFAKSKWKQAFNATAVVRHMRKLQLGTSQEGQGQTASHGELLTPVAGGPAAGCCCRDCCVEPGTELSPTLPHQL
# T27 sequence (Q9HBY8 whole entry): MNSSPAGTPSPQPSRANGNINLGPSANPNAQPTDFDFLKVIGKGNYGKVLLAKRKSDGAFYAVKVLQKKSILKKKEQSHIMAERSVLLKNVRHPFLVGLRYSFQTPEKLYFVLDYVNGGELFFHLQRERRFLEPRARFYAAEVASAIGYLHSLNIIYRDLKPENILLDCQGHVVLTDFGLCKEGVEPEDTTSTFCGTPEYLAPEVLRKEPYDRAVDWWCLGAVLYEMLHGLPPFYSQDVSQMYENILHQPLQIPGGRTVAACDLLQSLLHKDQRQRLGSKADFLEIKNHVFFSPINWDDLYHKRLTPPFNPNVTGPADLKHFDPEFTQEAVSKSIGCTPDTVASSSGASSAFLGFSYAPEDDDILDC
# T17 sequence (Q9H2G2 whole entry): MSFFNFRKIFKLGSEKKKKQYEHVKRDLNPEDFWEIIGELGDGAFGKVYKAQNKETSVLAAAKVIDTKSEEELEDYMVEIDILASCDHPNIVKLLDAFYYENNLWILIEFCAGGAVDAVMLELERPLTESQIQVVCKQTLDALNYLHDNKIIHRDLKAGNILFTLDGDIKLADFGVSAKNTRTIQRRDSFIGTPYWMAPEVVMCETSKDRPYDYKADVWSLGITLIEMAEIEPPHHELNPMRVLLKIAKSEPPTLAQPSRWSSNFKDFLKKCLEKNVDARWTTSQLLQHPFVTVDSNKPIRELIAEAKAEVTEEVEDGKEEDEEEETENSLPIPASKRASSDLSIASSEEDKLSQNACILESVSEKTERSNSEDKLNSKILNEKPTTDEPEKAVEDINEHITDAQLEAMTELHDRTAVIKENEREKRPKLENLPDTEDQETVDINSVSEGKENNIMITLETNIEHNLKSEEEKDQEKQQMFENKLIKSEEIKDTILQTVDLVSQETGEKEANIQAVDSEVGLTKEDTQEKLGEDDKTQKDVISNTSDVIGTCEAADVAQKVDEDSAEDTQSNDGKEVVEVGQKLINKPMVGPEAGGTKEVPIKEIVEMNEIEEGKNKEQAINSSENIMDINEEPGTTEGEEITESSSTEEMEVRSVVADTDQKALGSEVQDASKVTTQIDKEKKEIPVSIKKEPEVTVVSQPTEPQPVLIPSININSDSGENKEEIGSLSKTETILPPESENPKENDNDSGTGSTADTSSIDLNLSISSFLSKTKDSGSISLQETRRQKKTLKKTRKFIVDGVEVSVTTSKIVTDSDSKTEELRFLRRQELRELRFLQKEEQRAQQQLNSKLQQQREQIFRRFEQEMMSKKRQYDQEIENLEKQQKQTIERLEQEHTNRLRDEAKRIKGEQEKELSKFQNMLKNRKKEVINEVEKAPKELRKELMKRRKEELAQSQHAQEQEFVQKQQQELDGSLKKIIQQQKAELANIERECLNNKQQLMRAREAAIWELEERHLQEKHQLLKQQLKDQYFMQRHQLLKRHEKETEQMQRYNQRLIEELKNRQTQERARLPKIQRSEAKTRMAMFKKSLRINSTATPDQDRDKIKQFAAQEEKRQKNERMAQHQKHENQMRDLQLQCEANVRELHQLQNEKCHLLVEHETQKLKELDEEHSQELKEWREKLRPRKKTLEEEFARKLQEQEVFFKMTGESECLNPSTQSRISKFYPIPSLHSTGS
# T14 sequence (P80192 whole entry): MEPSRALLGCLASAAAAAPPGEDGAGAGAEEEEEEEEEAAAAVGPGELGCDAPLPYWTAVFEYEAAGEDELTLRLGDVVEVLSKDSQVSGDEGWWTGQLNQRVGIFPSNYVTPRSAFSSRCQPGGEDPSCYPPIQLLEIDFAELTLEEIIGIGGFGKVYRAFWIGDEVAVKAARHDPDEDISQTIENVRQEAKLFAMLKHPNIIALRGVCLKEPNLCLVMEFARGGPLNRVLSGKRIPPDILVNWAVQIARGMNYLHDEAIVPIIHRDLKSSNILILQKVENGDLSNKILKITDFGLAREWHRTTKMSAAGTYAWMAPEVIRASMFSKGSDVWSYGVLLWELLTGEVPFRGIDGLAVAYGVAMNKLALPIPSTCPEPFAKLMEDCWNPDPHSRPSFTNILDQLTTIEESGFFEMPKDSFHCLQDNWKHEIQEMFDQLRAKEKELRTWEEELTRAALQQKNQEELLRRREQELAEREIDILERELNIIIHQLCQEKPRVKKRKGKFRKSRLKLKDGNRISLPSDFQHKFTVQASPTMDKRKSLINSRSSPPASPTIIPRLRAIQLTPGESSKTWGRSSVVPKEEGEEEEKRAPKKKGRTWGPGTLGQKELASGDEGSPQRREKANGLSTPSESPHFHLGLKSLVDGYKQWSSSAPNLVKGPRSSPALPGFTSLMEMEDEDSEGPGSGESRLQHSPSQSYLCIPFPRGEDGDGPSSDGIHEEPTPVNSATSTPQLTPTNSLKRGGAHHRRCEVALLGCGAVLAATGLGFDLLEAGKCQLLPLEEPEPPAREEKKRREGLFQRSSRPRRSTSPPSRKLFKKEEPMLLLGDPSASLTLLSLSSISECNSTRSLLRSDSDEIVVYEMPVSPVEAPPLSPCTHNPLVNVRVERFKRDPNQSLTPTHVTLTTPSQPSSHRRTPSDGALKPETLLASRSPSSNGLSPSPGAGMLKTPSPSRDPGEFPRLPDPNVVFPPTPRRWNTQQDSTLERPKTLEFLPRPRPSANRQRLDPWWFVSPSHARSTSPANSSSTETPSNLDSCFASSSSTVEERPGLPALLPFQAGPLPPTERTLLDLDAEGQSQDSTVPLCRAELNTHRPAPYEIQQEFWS
# T5 sequence (P27448 whole entry): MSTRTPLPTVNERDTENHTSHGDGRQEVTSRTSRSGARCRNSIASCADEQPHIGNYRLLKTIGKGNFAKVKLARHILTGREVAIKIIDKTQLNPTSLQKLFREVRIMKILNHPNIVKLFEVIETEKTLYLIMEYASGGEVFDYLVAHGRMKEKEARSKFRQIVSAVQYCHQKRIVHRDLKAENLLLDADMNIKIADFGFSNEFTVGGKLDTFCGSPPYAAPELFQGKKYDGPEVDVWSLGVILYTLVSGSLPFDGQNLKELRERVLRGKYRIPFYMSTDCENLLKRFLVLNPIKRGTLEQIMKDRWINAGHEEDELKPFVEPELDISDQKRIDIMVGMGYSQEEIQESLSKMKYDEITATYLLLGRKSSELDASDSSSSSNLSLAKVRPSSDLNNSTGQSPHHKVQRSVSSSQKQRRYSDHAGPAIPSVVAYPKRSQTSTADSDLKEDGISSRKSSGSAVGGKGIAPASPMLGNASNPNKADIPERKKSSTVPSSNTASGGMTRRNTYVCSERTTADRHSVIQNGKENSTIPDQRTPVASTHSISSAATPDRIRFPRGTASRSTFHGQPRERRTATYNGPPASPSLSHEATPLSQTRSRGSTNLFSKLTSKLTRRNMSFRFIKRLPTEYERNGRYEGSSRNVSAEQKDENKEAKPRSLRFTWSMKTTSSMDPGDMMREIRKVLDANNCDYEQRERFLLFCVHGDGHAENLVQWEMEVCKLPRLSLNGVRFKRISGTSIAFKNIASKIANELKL
# T31 sequence (Q13237 whole entry): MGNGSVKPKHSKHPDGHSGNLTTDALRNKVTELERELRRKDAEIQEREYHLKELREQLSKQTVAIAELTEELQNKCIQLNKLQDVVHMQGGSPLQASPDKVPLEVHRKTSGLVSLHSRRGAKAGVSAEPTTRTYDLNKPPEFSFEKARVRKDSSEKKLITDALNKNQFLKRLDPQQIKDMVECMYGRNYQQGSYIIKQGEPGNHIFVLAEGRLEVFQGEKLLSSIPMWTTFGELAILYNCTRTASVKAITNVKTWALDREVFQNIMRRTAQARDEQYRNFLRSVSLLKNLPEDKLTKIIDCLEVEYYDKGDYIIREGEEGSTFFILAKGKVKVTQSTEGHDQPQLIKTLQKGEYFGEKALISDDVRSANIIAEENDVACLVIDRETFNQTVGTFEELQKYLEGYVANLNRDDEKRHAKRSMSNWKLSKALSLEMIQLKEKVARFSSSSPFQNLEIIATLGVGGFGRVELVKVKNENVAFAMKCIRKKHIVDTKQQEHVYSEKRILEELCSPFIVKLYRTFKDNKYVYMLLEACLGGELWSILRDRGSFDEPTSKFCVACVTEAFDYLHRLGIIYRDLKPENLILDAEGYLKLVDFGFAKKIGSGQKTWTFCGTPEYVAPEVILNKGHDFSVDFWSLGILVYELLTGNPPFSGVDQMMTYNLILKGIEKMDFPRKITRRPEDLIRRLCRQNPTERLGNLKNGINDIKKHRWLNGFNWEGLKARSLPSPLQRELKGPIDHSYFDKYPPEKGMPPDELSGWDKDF
# T32 sequence (Q9BUB5 whole entry): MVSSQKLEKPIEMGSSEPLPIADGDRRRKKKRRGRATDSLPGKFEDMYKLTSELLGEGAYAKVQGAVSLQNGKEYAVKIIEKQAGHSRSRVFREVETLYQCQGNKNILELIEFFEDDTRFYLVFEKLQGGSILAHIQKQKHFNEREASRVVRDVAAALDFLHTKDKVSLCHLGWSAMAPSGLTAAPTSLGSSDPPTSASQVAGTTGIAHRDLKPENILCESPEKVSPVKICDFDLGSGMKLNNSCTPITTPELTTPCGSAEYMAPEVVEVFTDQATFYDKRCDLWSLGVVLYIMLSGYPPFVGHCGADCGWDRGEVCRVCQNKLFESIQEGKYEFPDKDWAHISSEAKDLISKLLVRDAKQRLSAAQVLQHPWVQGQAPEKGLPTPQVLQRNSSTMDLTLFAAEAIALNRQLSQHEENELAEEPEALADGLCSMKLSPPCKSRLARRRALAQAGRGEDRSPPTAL
smiles,measurement,setting,value
"C[C@@H]1CC[C@H]2C(C)(C)CCC[C@]2(C)c2c1oc1c(C=O)c(O)c(O)cc21 [LG-1, liphagal]",inhibition at 10 µM,DYRK2,18.9%
same,inhibition at 10 µM,DAPK1,1.8%
same,inhibition at 10 µM,TRKA,36.4%
same,inhibition at 10 µM,PDK1,-97.8%
same,inhibition at 10 µM,MARK3,-2.9%
same,inhibition at 10 µM,LYNb,2.8%
same,inhibition at 10 µM,NEK6,65.4%
same,inhibition at 10 µM,MOS_Cascade,29.5%
same,inhibition at 10 µM,AurB,12.1%
same,inhibition at 10 µM,FM8,12.5%
same,inhibition at 10 µM,MST 4,80.3%
same,inhibition at 10 µM,ABL(T315I),6.1%
same,inhibition at 10 µM,IRAK1,1.2%
same,inhibition at 10 µM,MLK1_Cascade,16.3%
same,inhibition at 10 µM,NuaK1,6%
same,inhibition at 10 µM,FGFR1(V561M),-12.6%
same,inhibition at 10 µM,SLK,10.5%
same,inhibition at 10 µM,MAP2K3_Cascade,25.6%
same,inhibition at 10 µM,MAPKAPK5,4.8%
same,inhibition at 10 µM,BTK,10.3%
same,inhibition at 10 µM,PBK,13%
same,% Inhibition,MNK,0.0%
same,inhibition at 10 µM,TRKB,15.8%
same,inhibition at 10 µM,ALK(F1174L),-1.8%
same,inhibition at 10 µM,EGFR(L861Q),1.5%
same,inhibition at 10 µM,HPK1,26.1%
same,inhibition at 10 µM,SYK,17%
same,inhibition at 10 µM,SGK2,9.3%
same,inhibition at 10 µM,MLK2_Cascade,8.3%
same,inhibition at 10 µM,CaMK1α,25.7%
same,inhibition at 10 µM,CK1ε,37.7%
same,inhibition at 10 µM,CGK2,7.3%
same,inhibition at 10 µM,MNK1,5.3%
same,inhibition at 10 µM,DYRK3,39.2%
same,inhibition at 10 µM,MUSK,-8.4%
same,inhibition at 10 µM,ABL,0.4%
same,% Inhibition,MAP3K3_Cascade,48.8%
same,inhibition at 10 µM,KIT(V560G),17.9%
same,inhibition at 10 µM,TSSK3,85.6%
same,inhibition at 10 µM,GSK3β,25.3%
same,% Inhibition,MAP3K4_Cascade,62.9%
same,inhibition at 10 µM,KIT,6%
same,inhibition at 10 µM,CDC7/ASK,26.2%
